Results taken from patent US20230203095A1, “BIOLOGICAL PEPTIDE FOR TREATING LUNG DISEASES AND APPLICATION THEREOF” (SHANGHAI INSTITUTE OF PHARMACEUTICAL INDUSTRY CO., LTD., priority 2019, published 2023).
Several values for one entry are separate records, joined by “and”; a condition that tells them apart may be missing. Identical values can stand only once. Peptide text beside a SMILES is read from it. * marks the point of attachment. X1 = CC(=O)N[C@H]1C(*)O[C@H](CO)[C@@H](O)[C@@H]1O

Experiment: Plasma drug concentrations and pharmacokinetics after a single intravenous or subcutaneous injection of SIPI-G9 in SD rats
Details: for level at 3 h: 180 min; for level at 4 h: 240 min; for clearance: CL; for MRT last: MRT0-t
Method: Routes: single back subcutaneous injection and single tail vein injection;
Orbital blood was collected at different time points before and after administration. […] High concentration samples were diluted with blank plasma.
Column: SHIM-PACK GISS C18 (2.1 × 100 mm, 1.9 µm); injection volume: 20 µL; mobile phase: phase A: 0.2% acetic acid in water; phase B: methanol, gradient elution (see Table 16 for details);
The ion source is electrospray ionization source (ESI); the drying gas (N2) temperature is 550° C.; the electrospray voltage is 5500 V; the detection method is positive ion detection; the scanning method is the selective reaction monitoring (MRM) method, and the scanning time is 0.15 s.
50 µL plasma was taken and 5 µL internal standard solution (DX07 (His-Leu-Glu-Thr-Glu-Leu-His) 100 ng/mL) was added. After that, 150 µL of methanol was added to precipitate proteins, then centrifuged at 13,000 rpm for 5 min, and 160 µL supernatant was taken and dried with 40° C. N2, then reconstituted with 75 µL of 0.1% formic acid aqueous solution.
Pharmacokinetic parameters were calculated using the non-compartmental model of DAS 2.0 software. Both Cmax and Tmax are measured values; AUC, T½, CL and Vz are calculated by DAS 2.0.

[1] = SIPI-G9 1 mg/kg i.v., SD rats, individual rats, 1 mg/kg
[2] = male, SD, rat, plasma, sc, 5 mg/kg, Plasma G-9 concentration, Mean, SIPI-G9 5 mg/kg s.c., SD rats, n=3
[3] = male, SD, rat, plasma, sc, 5 mg/kg, Plasma G-9 concentration, SIPI-G9 5 mg/kg single subcutaneous injection, SD rats, individual rats
[4] = rat, in vivo, iv, 1 mg/kg, Mean
[5] = rat, in vivo, sc, 5 mg/kg, Mean

## CC(=O)N[C@H]1C(OC[C@H](NC(=O)[C@@H](NC(=O)[C@H](Cc2ccc(O)cc2)NC(=O)[C@@H](NC(=O)[C@H](CCC(N)=O)NC(=O)CN)[C@@H](C)OC2O[C@H](CO)[C@@H](O)[C@H](O)[C@H]2NC(C)=O)[C@@H](C)O)C(=O)NCC(=O)O)O[C@H](CO)[C@@H](O)[C@@H]1O (some centres unmarked) [SIPI-G9, GQT(Glc)YTS(Glc)G] (H-GQT(X1)YTS(X1)G-OH)
[1]
  T1/2: 8.50 min and 7.50 min
  Vd: 2.23 L/kg and 1.29 L/kg
SIPI-G9 1 mg/kg single intravenous injection, SD rats, 3 min, individual rats, 1 mg/kg
  Plasma G-9 concentration: 714 ng/mL and 573 ng/mL and 737 ng/mL
SIPI-G9 1 mg/kg single intravenous injection, SD rats, 6 min, individual rats, 1 mg/kg
  Plasma G-9 concentration: 265 ng/mL and 231 ng/mL and 295 ng/mL
SIPI-G9 1 mg/kg single intravenous injection, SD rats, 10 min, individual rats, 1 mg/kg
  Plasma G-9 concentration: 124 ng/mL and 120 ng/mL and 377 ng/mL
SIPI-G9 1 mg/kg single intravenous injection, SD rats, 20 min, individual rats, 1 mg/kg
  Plasma G-9 concentration: 33.5 ng/mL and 31.6 ng/mL and 80.0 ng/mL
SIPI-G9 1 mg/kg single intravenous injection, SD rats, 40 min, individual rats, 1 mg/kg
  Plasma G-9 concentration: 6.09 ng/mL and 5.68 ng/mL and 6.78 ng/mL
SIPI-G9 1 mg/kg single intravenous injection, SD rats, 60 min, individual rats, 1 mg/kg
  Plasma G-9 concentration: 1.33 ng/mL and 1.21 ng/mL and 2.00 ng/mL
SIPI-G9 5 mg/kg single subcutaneous injection, SD rats, 0 min, individual rats
  Plasma G-9 concentration: 0 ng/mL
SIPI-G9 5 mg/kg single subcutaneous injection, SD rats, 40 min, individual rats, 5 mg/kg
  Plasma G-9 concentration: 229 ng/mL
SIPI-G9 5 mg/kg single subcutaneous injection, SD rats, 120 min, individual rats, 5 mg/kg
  Plasma G-9 concentration: 28.5 ng/mL and 33.5 ng/mL and 24.5 ng/mL
male, SD, rat, in vivo, iv, 1 mg/kg
  AUC(0-t): 114 ng·h/mL
male, SD, rat, in vivo, sc, 5 mg/kg
  AUC(0-t): 490 ng·h/mL
male, SD, rat, plasma, iv, 1 mg/kg, Plasma G-9 concentration, Mean, SIPI-G9 1 mg/kg i.v., SD rats, 3 min, n=3
  level at 0.05 h: 675 ng/mL
male, SD, rat, plasma, iv, 1 mg/kg, Plasma G-9 concentration, Mean, SIPI-G9 1 mg/kg i.v., SD rats, 6 min, n=3
  level at 0.1 h: 264 ng/mL
male, SD, rat, plasma, iv, 1 mg/kg, Plasma G-9 concentration, Mean, SIPI-G9 1 mg/kg i.v., SD rats, 10 min, n=3
  level at 10 min: 207 ng/mL
male, SD, rat, plasma, iv, 1 mg/kg, Plasma G-9 concentration, Mean, SIPI-G9 1 mg/kg i.v., SD rats, 20 min, n=3
  level at 20 min: 48.4 ng/mL
male, SD, rat, plasma, iv, 1 mg/kg, Plasma G-9 concentration, Mean, SIPI-G9 1 mg/kg i.v., SD rats, 40 min, n=3
  level at 40 min: 6.18 ng/mL
male, SD, rat, plasma, iv, 1 mg/kg, Plasma G-9 concentration, Mean, SIPI-G9 1 mg/kg i.v., SD rats, 60 min, n=3
  level at 1 h: 1.51 ng/mL
male, SD, rat, plasma, sc, 5 mg/kg, Plasma G-9 concentration, Mean, SIPI-G9 5 mg/kg s.c., SD rats, 3 min, n=3
  level at 0.05 h: 699 ng/mL
male, SD, rat, plasma, sc, 5 mg/kg, Plasma G-9 concentration, Mean, SIPI-G9 5 mg/kg s.c., SD rats, 6 min, n=3
  level at 0.1 h: 1020 ng/mL
male, SD, rat, plasma, sc, 5 mg/kg, Plasma G-9 concentration, Mean, SIPI-G9 5 mg/kg s.c., SD rats, 10 min, n=3
  level at 10 min: 796 ng/mL
male, SD, rat, plasma, sc, 5 mg/kg, Plasma G-9 concentration, Mean, SIPI-G9 5 mg/kg s.c., SD rats, 20 min, n=3
  level at 20 min: 408 ng/mL
male, SD, rat, plasma, sc, 5 mg/kg, Plasma G-9 concentration, Mean, SIPI-G9 5 mg/kg s.c., SD rats, 40 min, n=3
  level at 40 min: 228 ng/mL
male, SD, rat, plasma, sc, 5 mg/kg, Plasma G-9 concentration, Mean, SIPI-G9 5 mg/kg s.c., SD rats, 60 min, n=3
  level at 1 h: 131 ng/mL
male, SD, rat, plasma, sc, 5 mg/kg, Plasma G-9 concentration, Mean, SIPI-G9 5 mg/kg s.c., SD rats, 120 min, n=3
  level at 2 h: 28.8 ng/mL
[2]
  level at 3 h: 6.01 ng/mL
  level at 4 h: 0.708 ng/mL
male, SD, rat, plasma, sc, 5 mg/kg, Plasma G-9 concentration, SIPI-G9 5 mg/kg single subcutaneous injection, SD rats, 3 min, individual rats
  level at 0.05 h: 758 ng/mL
male, SD, rat, plasma, sc, 5 mg/kg, Plasma G-9 concentration, SIPI-G9 5 mg/kg single subcutaneous injection, SD rats, 6 min, individual rats
  level at 0.1 h: 904 ng/mL
male, SD, rat, plasma, sc, 5 mg/kg, Plasma G-9 concentration, SIPI-G9 5 mg/kg single subcutaneous injection, SD rats, 10 min, individual rats
  level at 10 min: 633 ng/mL
male, SD, rat, plasma, sc, 5 mg/kg, Plasma G-9 concentration, SIPI-G9 5 mg/kg single subcutaneous injection, SD rats, 20 min, individual rats
  level at 20 min: 324 ng/mL
male, SD, rat, plasma, sc, 5 mg/kg, Plasma G-9 concentration, SIPI-G9 5 mg/kg single subcutaneous injection, SD rats, 40 min, individual rats
  level at 40 min: 230 ng/mL
male, SD, rat, plasma, sc, 5 mg/kg, Plasma G-9 concentration, SIPI-G9 5 mg/kg single subcutaneous injection, SD rats, 60 min, individual rats
  level at 1 h: 118 ng/mL
[3]
  level at 3 h: 6.6 ng/mL
  level at 4 h: 0.807 ng/mL
rat, in vivo
  Fa (absolute bioavailability): 96.6%
rat, in vivo, Fa (absolute bioavailability)
  bioavailability: 79.2%
rat, in vivo, iv, 1 mg/kg
  clearance: 151 mL/min/kg
  Cmax: 714 ng/mL
  MRT last: 5.49 min
  Tmax: 3 min
[4]
  clearance: 151 mL/min/kg
  Cmax: 675 ng/mL
  MRT last: 6.63 min
  Tmax: 3 min
rat, in vivo, iv, 1 mg/kg, T1/2, Mean, SIPI-G9 1 mg/kg i.v., SD rats, n=3
  half-life: 8.2 min
rat, in vivo, iv, 1 mg/kg, T1/2, SIPI-G9 1 mg/kg i.v., SD rats, individual rats
  half-life: 8.59 min
rat, in vivo, iv, 1 mg/kg, Vd, Mean, SIPI-G9 1 mg/kg i.v., SD rats, n=3
  Vd: 1.8 L/kg
rat, in vivo, iv, 1 mg/kg, Vd, SIPI-G9 1 mg/kg i.v., SD rats, individual rats
  Vd: 1.87 L/kg
rat, in vivo, sc, 5 mg/kg
  Cmax: 904 ng/mL
  MRT last: 34.3 min
  Tmax: 6 min
[5]
  Cmax: 1020 ng/mL
  MRT last: 33.9 min
  Tmax: 7 min
